The test system of assay [1] is PPAR-dependent gene transcription in small intestine epithelial cell line IEC-6. Kind of assay: Test on PPAR-dependent gene transcription activation (PPAR-Luc reporter), IEC-6. In kind it is cell-based. Conditions: IEC-6, test concentration 10 μM, 24 hours. The method, then: (§1) The small intestine epithelial cell line IEC-6 and human hepatic cell line HepG2 were inoculated on a 12 well plate and cultured in DMEM (5% FCS) for 24 hours. A DNA chain containing PPAR responsive element (underlined portion) ([…]), a SV40 promoter gene, a PPAR reporter plasmid (PPAR-Luc) containing firefly luciferase gene, and a control plasmid having thymidine kinase promoter gene linked on the upstream of renilla luciferase gene were introduced simultaneously by using a transfection reagent (“Superfect transfection reagent”, product of Promega Corporation) each in an amount of 0.5 μg/well. The culture broth was then replaced with a DMEM (—FCS) medium containing a test substance, followed by incubation for further 24 hours. After washing with PBS, the cells were lysed using dual luciferase assay system (product of Promega Corporation). To the resulting lysate, a substrate solution containing luciferin was added and firefly and renilla luciferase activities were measured by a luminometer. In this test system, a PPAR-dependent gene transcriptional activator was searched for by measuring the transcriptional activity (luciferase activity of PPAR-dependent gene. It is to be noted that the PPAR-dependent gene transcriptional activity (luciferase activity) was defined as described below. PPAR-dependent gene transcriptional activity (luciferase activity)=(firefly luciferase activity by PPAR-Luc)/(renilla luciferase activity by TK-Luc)
(§2) In Table 8, PPAR-dependent gene transcription activating capacity of each test substance in IEC-6 and HepG2 cell lines is shown. In this table, PPAR-dependent transcriptional activity by the control is set at 100 and activity relative to it is indicated. As a positive control, fenofibrate was employed.

Assay [2] concerns PPAR-dependent gene transcription in human hepatic cell line HepG2. Kind of assay: Test on PPAR-dependent gene transcription activation (PPAR-Luc reporter), HepG2. In kind it is cell-based. Conditions: HepG2, test concentration 10 μM, 24 hours. How it is done:
as §1, §2

Consider `O=C(O[C@@H]1Cc2c(O)cc(O)cc2O[C@@H]1c1ccc(O)c(O)c1)c1cc(O)c(O)c(O)c1` [Epicatechin gallate], for which the “PPAR-dependent transcriptional activity (luciferase activity) relative to control set at 100” value is given as 178 in assay [1] and 166 in assay [2].

With `Oc1cc(O)c2c(c1)O[C@H](c1ccc(O)c(O)c1)[C@H](O)C2` [Epicatechin], the “PPAR-dependent transcriptional activity (luciferase activity) relative to control set at 100” value in assay [1] is listed as 158; in assay [2], 150.

On to `O=C(O[C@@H]1Cc2c(O)cc(O)cc2O[C@@H]1c1cc(O)c(O)c(O)c1)c1cc(O)c(O)c(O)c1` [Epigallocatechin gallate], for which the “PPAR-dependent transcriptional activity (luciferase activity) relative to control set at 100” value in assay [1] was found to be 184; in assay [2], 172.

As to Catechin, the “PPAR-dependent transcriptional activity (luciferase activity) relative to control set at 100” value in assay [1] was found to be 152; in assay [2], 149.

(Values after patent US7968139B2, “Packaged beverages” (Kao Corporation, priority 2000, dated 2011).)
